Results published in patent US20040152722A1 (priority 2001, published 2004).

Key:
[1] = test system: Rigidity Model of Mouse Induced By Haloperidol; details: in vivo, po
[2] = test system: Tremor Model of Mice Induced by Agonist of Cholinergic M-Receptor: Arecaline; details: mouse, in vivo, po

SMILES: OC(CCN1CCCCC1)(c1ccccc1)C1CCCCC1 (centres unmarked) [Benzhexol]
- ED50 + L95 [1]: 19.56 ± 1.44 mg/kg
- ED50 + L95 [2]: 8.82 ± 0.83 mg/kg
